Source: ChEMBL document CHEMBL1201862, “PubChem BioAssay data set” (2004)
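Step 1: Grow cells in 96-well plates. Step 2: Expose to compound for 48 hours at 5 concentrations. Step 3: Interpolate endpoints linearly; if unreached, use highest concentration. GI50 is the concentration that inhibits growth by half.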 Calls of active or inactive are those of the source. Rule as the data show it: active = GI50 up to about 1.1 µM and inactive = higher.

Experiments:
Experiment in all cases: growth of human tumour cells (NCI), 48 h
[1] = test system: 786-0
[2] = test system: A549
[3] = test system: ACHN
[4] = test system: BT-549
[5] = test system: CAKI-1
[6] = test system: CCRF-CEM
[7] = test system: COLO 205
[8] = test system: DU-145
[9] = test system: EKVX
[10] = test system: HCC 2998
[11] = test system: HCT-116
[12] = test system: HCT-15
[13] = test system: HL-60
[14] = test system: HT-29
[15] = test system: Hs-578T
[16] = test system: IGROV-1
[17] = test system: K562
[18] = test system: KM12
[19] = test system: LOX IMVI
[20] = test system: M14
[21] = test system: MCF7
[22] = test system: MDA-MB-435
[23] = test system: MDA-N
[24] = test system: MOLT-4
[25] = test system: Malme-3M
[26] = test system: NCI-H226
[27] = test system: NCI-H23
[28] = test system: NCI-H460
[29] = test system: NCI-H522
[30] = test system: OVCAR-3
[31] = test system: OVCAR-4
[32] = test system: OVCAR-5
[33] = test system: OVCAR-8
[34] = test system: PC-3
[35] = test system: RPMI-8226
[36] = test system: RXF 393
[37] = test system: SF-295
[38] = test system: SF-539
[39] = test system: SK-MEL-2
[40] = test system: SK-MEL-5
[41] = test system: SK-OV-3
[42] = test system: SN12C
[43] = test system: SNB-19
[44] = test system: SNB-75
[45] = test system: SR
[46] = test system: SW-620
[47] = test system: T47D
[48] = test system: TK-10
[49] = test system: U-251
[50] = test system: UACC-62
[51] = test system: A498
[52] = test system: HOP-62
[53] = test system: HOP-92
[54] = test system: MDA-MB-231
[55] = test system: NCI/ADR-RES
[56] = test system: SF-268
[57] = test system: SK-MEL-28
[58] = test system: UACC-257
[59] = test system: UO-31

In the case of `COc1cc2c(c(OC)c1OC)-c1ccc(SC)cc1C(=O)CC2`, the GI50 [1] is reported as < 0.01 µM (active), the GI50 [2] is reported as < 0.01 µM (active) and the GI50 [3] is reported as < 0.01 µM (active). The GI50 [4] was > 100 µM (inactive), the GI50 [5] was < 0.0227 µM (active) and the GI50 [6] was < 0.01 µM (active). The GI50 [7] was < 0.01 µM (active), the GI50 [8] was < 0.01 µM (active) and the GI50 [9] was < 0.0382 µM (active). For the same compound, the GI50 [10] was < 0.01 µM (active), the GI50 [11] was < 0.01 µM (active) and the GI50 [12] was under 0.01 µM. For the same compound, the GI50 [13] was < 0.01 µM (active), the GI50 [14] was < 0.01 µM (active) and the GI50 [15] was < 0.01 µM (active). The GI50 [16] was < 0.01 µM (active), the GI50 [17] was < 0.01 µM (active) and the GI50 [18] was < 0.01 µM (active). The GI50 [19] was < 0.01 µM (active), the GI50 [20] was < 0.01 µM (active) and the GI50 [21] was < 0.01 µM (active). The GI50 [22] was < 0.01 µM (active), the GI50 [23] was 0.0243 µM (active) and the GI50 [24] was < 0.01 µM (active). The GI50 [25] was < 0.01 µM (active), the GI50 [26] was < 0.01 µM (active) and the GI50 [27] was < 0.01 µM (active). The GI50 [28] was < 0.01 µM (active), the GI50 [29] was < 0.01 µM (active) and the GI50 [30] was < 0.01 µM (active). For the same compound, the GI50 [31] was 7.76 µM (inactive), the GI50 [32] was > 100 µM (inactive) and the GI50 [33] was < 0.01 µM (active). The GI50 [34] was < 0.01 µM (active), the GI50 [35] was < 0.01 µM (active) and the GI50 [36] was 66.8 µM (inactive). The GI50 [37] was < 0.01 µM (active), the GI50 [38] was < 0.01 µM (active) and the GI50 [39] was > 100 µM (inactive). The GI50 [40] was < 0.01 µM (active), the GI50 [41] was < 0.01 µM (active) and the GI50 [42] was < 0.0421 µM (active). The GI50 [43] was < 0.01 µM (active), the GI50 [44] was 1 µM (active) and the GI50 [45] was < 0.0213 µM (active). The GI50 [46] was < 0.0228 µM (active), the GI50 [47] was > 100 µM (inactive) and the GI50 [48] was > 100 µM (inactive). For the same compound, the GI50 [49] was < 0.01 µM (active) and the GI50 [50] was < 0.01 µM (active).
In the case of `CC(=O)Oc1ccc(N2C(=O)C3c4[nH]c5ccccc5c4C4CCC(C(C)(C)C)CC4C3C2=O)cc1` (stereo not given), the GI50 [1] is reported as 2.1 µM (inactive), the GI50 [51] is reported as 4.11 µM (inactive) and the GI50 [2] is reported as 3.13 µM (inactive). The GI50 [3] was 3.55 µM (inactive), the GI50 [4] was 4.02 µM (inactive) and the GI50 [5] was 5.31 µM (inactive). For the same compound, the GI50 [6] was 10 µM (inactive), the GI50 [7] was 4.71 µM (inactive) and the GI50 [8] was 3.7 µM (inactive). The GI50 [9] was 3.07 µM (inactive), the GI50 [10] was 2.68 µM (inactive) and the GI50 [11] was 2.15 µM (inactive). For the same compound, the GI50 [12] was 4.07 µM, the GI50 [13] was 2.21 µM (inactive) and the GI50 [52] was 3.79 µM (inactive). The GI50 [53] was 3.03 µM (inactive), the GI50 [14] was 3.3 µM (inactive) and the GI50 [15] was 2.31 µM (inactive). The GI50 [16] was 5.97 µM (inactive), the GI50 [17] was 3.26 µM (inactive) and the GI50 [19] was 4.41 µM (inactive). For the same compound, the GI50 [20] was 4.01 µM (inactive), the GI50 [21] was 2.88 µM (inactive) and the GI50 [54] was 2.28 µM (inactive). For the same compound, the GI50 [22] was 10.4 µM (inactive), the GI50 [23] was 4.67 µM (inactive) and the GI50 [24] was 10 µM (inactive). For the same compound, the GI50 [25] was 6.56 µM (inactive), the GI50 [26] was 12.7 µM (inactive) and the GI50 [27] was 3.56 µM (inactive). For the same compound, the GI50 [28] was 2.55 µM (inactive), the GI50 [29] was 4.45 µM (inactive) and the GI50 [55] was 3.56 µM (inactive). For the same compound, the GI50 [30] was 2.69 µM (inactive), the GI50 [32] was 2.63 µM (inactive) and the GI50 [33] was 3.84 µM (inactive). The GI50 [34] was 2.79 µM (inactive), the GI50 [35] was 6.68 µM (inactive) and the GI50 [36] was 2.46 µM (inactive). The GI50 [56] was 3.34 µM (inactive), the GI50 [37] was 4.37 µM (inactive) and the GI50 [38] was 5.01 µM (inactive). The GI50 [57] was 3.76 µM (inactive), the GI50 [39] was 5.13 µM (inactive) and the GI50 [40] was 2.84 µM (inactive). The GI50 [41] was 10.8 µM (inactive), the GI50 [42] was 2.14 µM (inactive) and the GI50 [43] was 3.08 µM (inactive). For the same compound, the GI50 [46] was 2.51 µM (inactive), the GI50 [48] was 3.33 µM (inactive) and the GI50 [49] was 3.27 µM (inactive). For the same compound, the GI50 [58] was 11.1 µM (inactive), the GI50 [50] was 6.08 µM (inactive) and the GI50 [59] was 5.35 µM (inactive).
For `COC(=O)c1nc2c3c(cccc3c1C(=O)OC)Nc1ccccc1-2`, the GI50 [1] was 27.5 µM (inactive), the GI50 [51] was 36.6 µM (inactive) and the GI50 [2] was 35.6 µM (inactive). The GI50 [3] was 36.6 µM (inactive), the GI50 [4] was 43.2 µM (inactive) and the GI50 [5] was 50.2 µM (inactive). For the same compound, the GI50 [6] was 13.2 µM (inactive), the GI50 [7] was 28.1 µM (inactive) and the GI50 [8] was 41.6 µM (inactive). The GI50 [9] was 65.8 µM (inactive), the GI50 [10] was 42.3 µM (inactive) and the GI50 [11] was 25.2 µM (inactive). The GI50 [13] was 53 µM (inactive), the GI50 [52] was 23.6 µM (inactive) and the GI50 [53] was 16.9 µM (inactive). For the same compound, the GI50 [14] was 34.8 µM (inactive), the GI50 [15] was 26.7 µM (inactive) and the GI50 [16] was 32 µM (inactive). The GI50 [17] was 54.1 µM (inactive), the GI50 [18] was 28.2 µM (inactive) and the GI50 [19] was 32.3 µM (inactive). For the same compound, the GI50 [20] was 44.8 µM (inactive), the GI50 [21] was 60.4 µM (inactive) and the GI50 [54] was 23.8 µM (inactive). For the same compound, the GI50 [22] was 83.6 µM (inactive), the GI50 [23] was 46.2 µM (inactive) and the GI50 [24] was 43.8 µM (inactive). The GI50 [25] was 29.2 µM (inactive), the GI50 [26] was 65.3 µM (inactive) and the GI50 [27] was 36 µM (inactive). The GI50 [28] was 25.7 µM (inactive), the GI50 [29] was 10.7 µM (inactive) and the GI50 [55] was 17.8 µM (inactive). For the same compound, the GI50 [30] was 36.6 µM (inactive), the GI50 [31] was 35.9 µM (inactive) and the GI50 [32] was > 100 µM (inactive). For the same compound, the GI50 [34] was 15.5 µM (inactive), the GI50 [35] was 53 µM (inactive) and the GI50 [36] was 35.7 µM (inactive). For the same compound, the GI50 [56] was 38.5 µM (inactive), the GI50 [37] was 21.1 µM (inactive) and the GI50 [38] was 52.7 µM (inactive). For the same compound, the GI50 [57] was 59.7 µM (inactive), the GI50 [39] was 28.1 µM (inactive) and the GI50 [40] was 15.4 µM (inactive). The GI50 [41] was 24 µM (inactive), the GI50 [42] was 33.4 µM (inactive) and the GI50 [43] was 51.3 µM (inactive). The GI50 [44] was 34.5 µM (inactive), the GI50 [45] was 78.3 µM (inactive) and the GI50 [46] was 40.7 µM (inactive). The GI50 [48] was 40.9 µM (inactive), the GI50 [49] was 32.1 µM (inactive) and the GI50 [58] was 61.4 µM (inactive). For the same compound, the GI50 [50] was 10.7 µM (inactive) and the GI50 [59] was 18.8 µM (inactive).
